The values that follow come from publication PMC5814316 (Experimental Animals, 2017).

Molecules are shown by their SMILES.

Series [1] deals with rats. Kind of series: Toxicity observation in rats after single dose KTZ. In kind it is in vivo, rat.
Series [2] is described as follows: Stability of DECP, CP and KTZ in rat plasma under storage conditions. In kind it is physicochemical. The settings on record: for Short term stability, Measured / Short term stability, RE: 25 °C for 3 h; for stability throughout the whole manipulation and storage processes: short term, long term, freeze-thaw; for Long term stability, Measured / Long term stability, RE: −80 °C for 3 months; for Three freeze−thaw cycles, Measured / Three freeze−thaw cycles, RE: −80°C to 25°C.

The target of series [3] is T1, CYP3A4 (Homo sapiens, UniProt P08684). Kind of series: KTZ inhibition of CP conversion to DECP in HLM. The settings on record: human liver microsomes, probe CP (cyclophosphamide). (Microsomes from liver hold many membrane-bound enzymes, among them those of drug oxidation.)
T1 sequence (P08684 whole entry): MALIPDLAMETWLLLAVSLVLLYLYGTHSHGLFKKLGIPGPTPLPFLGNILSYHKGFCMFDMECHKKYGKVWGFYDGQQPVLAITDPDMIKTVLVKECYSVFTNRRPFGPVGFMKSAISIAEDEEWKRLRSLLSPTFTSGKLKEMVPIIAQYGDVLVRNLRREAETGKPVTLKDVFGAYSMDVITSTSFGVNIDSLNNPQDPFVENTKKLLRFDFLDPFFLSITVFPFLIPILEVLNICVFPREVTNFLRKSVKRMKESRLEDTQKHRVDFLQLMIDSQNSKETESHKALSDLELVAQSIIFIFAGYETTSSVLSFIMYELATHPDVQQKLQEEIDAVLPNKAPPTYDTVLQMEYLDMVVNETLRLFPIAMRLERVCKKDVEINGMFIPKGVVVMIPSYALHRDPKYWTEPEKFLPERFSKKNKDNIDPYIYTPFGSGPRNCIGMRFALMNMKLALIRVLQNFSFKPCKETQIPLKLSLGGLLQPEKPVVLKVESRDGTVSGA
The nature of series [4]: Pharmacokinetic study in rats: CP and DECP with and without KTZ, KTZ alone. It is filed as in vivo. The settings on record: rat, plasma; for AUC(0-inf): AUC0→∞; for MRT inf: MRT0–∞.
Series [5] deals with CYP3A4. As to conditions: cited from earlier work.
Series [6] concerns CYP3A4. The settings on record: C-4 oxidation of CP; cited from earlier work.
Series [7] concerns CYP2C9. As to conditions: C-4 oxidation of CP; cited from earlier work.
The target in series [8] is T1, CYP3A4. Kind of series: in vitro. The settings on record: human liver microsomes.
Series [9] has as its system CYP2B6. The settings on record: C-4 oxidation of CP; cited from earlier work.
For series [10] the following is noted: suffering and junctival irritation of the operator; cited from earlier work.
Setting [11] is: iv, 10 mg/kg, Group 1 (0 mg/kg KTZ), CP 10 mg/kg i.v., rats.
[12] abbreviates: iv, 10 mg/kg, Group 2 (10 mg/kg KTZ oral, 50 min before), CP 10 mg/kg i.v., rats.
[13] abbreviates: iv, 10 mg/kg, Group 3 (20 mg/kg KTZ oral, 50 min before), CP 10 mg/kg i.v., rats.
Setting [14] is: iv, 10 mg/kg, Group 4 (40 mg/kg KTZ oral, 50 min before), CP 10 mg/kg i.v., rats.

One may read the IC50 as the midpoint of a concentration-inhibition curve. Higher therefore signals a need for much substance. Usually AUC(0-t) stands for exposure summed from dosing to a finite time, without extrapolation to infinity. Low values mean low exposure, high ones high exposure. For orientation: Cmax means the maximum level reached in the sampled fluid or tissue. In general, MRT last refers to a mean duration of stay, worked out from the concentration-time curve. For orientation: Tmax means the time from dosing to the highest level. For `CC(=O)N1CCN(c2ccc(OCC3COC(Cn4ccnc4)(c4ccc(Cl)cc4Cl)O3)cc2)CC1` (stereo not drawn) [KTZ, ketoconazole], in series [1], the “toxicity (physiological aspects, data not shown)” value was “no obvious toxicity”. In addition, in series [2] (nominal 10 ng/ml), the “Short term stability, Measured” value worked out at 9.97 ± 0.23 ng/mL; the “Short term stability, RE” value is listed as −0.30%; the “Long term stability, Measured” value came to 9.55 ± 0.07 ng/mL; the “Long term stability, RE” value is on record as −4.50%. Also, in series [2] (nominal 10 ng/ml), the “Three freeze−thaw cycles, Measured” value came to 9.57 ± 0.23 ng/mL and the “Three freeze−thaw cycles, RE” value was −4.30%. In series [2] (nominal 40 ng/ml), the “Short term stability, Measured” value was 42.23 ± 0.76 ng/mL; the “Long term stability, Measured” value was 40.04 ± 0.57 ng/mL; the “Long term stability, RE” value is on record as 0.10%; the “Three freeze−thaw cycles, Measured” value was determined as 39.46 ± 0.44 ng/mL. In series [2] (nominal 40 ng/ml), the “Three freeze−thaw cycles, RE” value is reported as −1.35%. Further, in series [2] (nominal 250 ng/ml), the “Short term stability, Measured” value worked out at 264.51 ± 38.66 ng/mL; the “Short term stability, RE” value is reported as 5.80%; the “Long term stability, Measured” value worked out at 259.01 ± 37.39 ng/mL; the “Long term stability, RE” value is given as 3.64%. Moreover, in [2] (nominal 250 ng/ml), the “Three freeze−thaw cycles, Measured” value was determined as 254.65 ± 38.96 ng/mL and the “Three freeze−thaw cycles, RE” value is on record as 1.86%. The “stability throughout the whole manipulation and storage processes” value in [2] is on record as “stable”. The IC50 in [3] is 618 nM. Further, in series [4] (po, 20 mg/kg), the AUC(0-t) is 4730 ng·h/mL, the Cmax was found to be 2050 ng/mL, the MRT last was determined as 1.86 ± 0.193 h and the Tmax stood at 0.514 ± 0.399 h.

One may read the Km as the concentration of substrate that gives half-maximal velocity. One may read the AUC(0-inf) as total exposure, with the tail of the curve extrapolated. A low value points to less exposure. By MRT inf is commonly meant a mean duration of stay, worked out from the concentration-time curve. With `O=P1(N(CCCl)CCCl)NCCCO1` (stereo not drawn) [CP, Cyclophosphamide], the “part of CP dechloroethylated to DECP and CAA” value in series [5] is on record as “about 10%”. The “Short term stability, Measured” value in [2] (nominal 20 ng/ml) was found to be 20.57 ± 0.81 ng/mL; in series [2] (nominal 80 ng/ml), 84.49 ± 2.05 ng/mL; in [2] (nominal 500 ng/ml), 525.40 ± 73.09 ng/mL. In addition, the “Short term stability, RE” value in [2] (nominal 20 ng/ml) is given as 2.85%; in [2] (nominal 80 ng/ml), 5.61%; in series [2] (nominal 500 ng/ml), 5.08%. Moreover, the “stability throughout the whole manipulation and storage processes” value in series [2] is “stable”. Moreover, the “Long term stability, Measured” value came out at 18.79 ± 0.42 ng/mL in series [2] (nominal 20 ng/ml), 81.16 ± 2.40 ng/mL in [2] (nominal 80 ng/ml) and 509.89 ± 68.17 ng/mL in series [2] (nominal 500 ng/ml). For the same molecule, the “Long term stability, RE” value is −6.05% in [2] (nominal 20 ng/ml), 1.45% in [2] (nominal 80 ng/ml) and 1.98% in series [2] (nominal 500 ng/ml). Further, the results for the “Three freeze−thaw cycles, Measured” value in series [2] (nominal 20 ng/ml), in series [2] (nominal 80 ng/ml) and in [2] (nominal 500 ng/ml) were 18.68 ± 0.20 ng/mL, 78.39 ± 1.43 ng/mL and 490.26 ± 78.18 ng/mL, respectively. Besides, the “Three freeze−thaw cycles, RE” value in series [2] (nominal 20 ng/ml) is recorded as −6.60%; in series [2] (nominal 80 ng/ml) it was −2.01%; in series [2] (nominal 500 ng/ml), −1.95%. In addition, the “share of the total CP bioactivation” value in series [6] was 25%; in [7], 12%; in series [9] it was “approximately 45%”. In series [8], the Km stood at 160 µM. The AUC(0-t) came out at 21100 ng·h/mL in series [4] (iv, 10 mg/kg, AUC0→t, Group 2 (10 mg/kg KTZ oral, 50 min before), CP 10 mg/kg i.v., rats); 28700 ng·h/mL in series [4] (iv, 10 mg/kg, AUC0→t, Group 3 (20 mg/kg KTZ oral, 50 min before), CP 10 mg/kg i.v., rats); 38200 ng·h/mL in [4] (iv, 10 mg/kg, AUC0→t, Group 4 (40 mg/kg KTZ oral, 50 min before), CP 10 mg/kg i.v., rats). Also, the AUC(0-inf) in series [4] (setting [11]) is 15500 ng·h/mL; in series [4] (setting [12]) it was 21900 ng·h/mL; in series [4] (setting [13]) it was 29600 ng·h/mL; in [4] (setting [14]) it was 39000 ng·h/mL. The Cmax in series [4] (iv, 10 mg/kg, Cmax, Group 1 (0 mg/kg KTZ), CP 10 mg/kg i.v., rats) came to 9420 ng/mL; in series [4] (iv, 10 mg/kg, Cmax, Group 2 (10 mg/kg KTZ oral, 50 min before), CP 10 mg/kg i.v., rats), 10400 ng/mL; in series [4] (iv, 10 mg/kg, Cmax, Group 3 (20 mg/kg KTZ oral, 50 min before), CP 10 mg/kg i.v., rats), 11400 ng/mL; in [4] (iv, 10 mg/kg, Cmax, Group 4 (40 mg/kg KTZ oral, 50 min before), CP 10 mg/kg i.v., rats), 9600 ng/mL. The MRT last was determined as 1.7 ± 0.167 h in series [4] (iv, 10 mg/kg, MRT0–t, Group 1 (0 mg/kg KTZ), CP 10 mg/kg i.v., rats); 1.72 ± 0.357 h in series [4] (iv, 10 mg/kg, MRT0–t, Group 2 (10 mg/kg KTZ oral, 50 min before), CP 10 mg/kg i.v., rats); 2.04 ± 0.293 h in series [4] (iv, 10 mg/kg, MRT0–t, Group 3 (20 mg/kg KTZ oral, 50 min before), CP 10 mg/kg i.v., rats); 2.65 ± 0.482 h in series [4] (iv, 10 mg/kg, MRT0–t, Group 4 (40 mg/kg KTZ oral, 50 min before), CP 10 mg/kg i.v., rats). The MRT inf in [4] (setting [11]) worked out at 1.9 ± 0.345 h; in [4] (setting [12]), 1.86 ± 0.6 h; in series [4] (setting [13]) it was 2.12 ± 0.361 h; in series [4] (setting [14]), 2.67 ± 0.505 h. Besides, the Tmax in series [4] (iv, 10 mg/kg, Tmax, Group 1 (0 mg/kg KTZ), CP 10 mg/kg i.v., rats) was 0.194 ± 0.086 h; in series [4] (iv, 10 mg/kg, Tmax, Group 2 (10 mg/kg KTZ oral, 50 min before), CP 10 mg/kg i.v., rats) it was 0.194 ± 0.086 h; in [4] (iv, 10 mg/kg, Tmax, Group 3 (20 mg/kg KTZ oral, 50 min before), CP 10 mg/kg i.v., rats), 0.139 ± 0.086 h; in [4] (iv, 10 mg/kg, Tmax, Group 4 (40 mg/kg KTZ oral, 50 min before), CP 10 mg/kg i.v., rats), 0.347 ± 0.327 h.

With `O=CCCl` [CAA, chloroacetaldehyde], in [10], the “exposure level at which dangerous” value is on record as 45 ppm.
